pIC50: −log10 of the molar value.
Key:
[1] = tested on: mPGES-1-dependent PGE2 production in human blood; assay: Whole blood assay (LPS-stimulated human blood, PGE2 production); format: cell-based; conditions: 0.1 μg/ml LPS, 16 hours, 37° C., PGE2 by HTRF, read-out: hWBA
From the text: The whole blood assay [described by Patrignani, P. et al, Journal of Pharmacology and Experimental Therapeutics, 1994, vol. 271, pp 1705-1712] was used as the whole cell assay for testing the compounds. Whole blood provides a protein and cell rich environment for the study of biochemical efficacy of anti-inflammatory compounds, such as prostaglandin synthase inhibitors. To study the inhibitory activities of these compounds, human blood was stimulated with lipopolysaccharide (LPS) for typically 16 hours to induce mPGES-1 expression, after which the concentration of produced PGE2 was measured by competitive-immuno assay (homogeneous time-resolved fluorescence, HTRF) as read out for effectiveness against mPGES-1-dependent PGE2 production.
Human blood collected from human volunteers in heparinized tubes was incubated with 100 μM acetyl salicylic acid, in order to inhibit the constitutively expressed cyclooxygenase (COX)-1/COX-2 enzymes, and then stimulated with 0.1 μg/ml LPS to induce the expression of enzymes along the COX-2 pathway, e.g. COX-2 and mPGES-1. 100 μL of this blood was added to the wells of a 384-well plate containing 1 μL DMSO solutions of compounds typically in the final concentration range 316 μM to 0.01 μM. Naproxen was used as reference compound. The mix was incubated at 37° C. for 16 hours. Plasma was harvested by centrifugation and stored at −70° C. until further analysis of PGE2 levels. For the calculations, the 0%-activity value was represented by blood treated with acetyl salicylic acid, LPS and the reference compound (1 mM Naproxen). The 100%-activity value was represented by blood treated with aspirin, LPS and DMSO. [Reference: Patrignani, P. et al, Journal of Pharmacology and Experimental Therapeutics, 1994, vol. 271, pp 1705-1712]. The PGE2 formed was quantified, after dilution in a weak potassium phosphate buffer (50 mM, pH 6.8) containing 0.2% BSA (w/v), by use of a commercial HTRF based kit (catalogue #62PG2PEC or #62P2APEC from Cisbio International). IC50 values were then determined using standard procedures.

human mPGES-1 = target: T1, human mPGES-1 (Homo sapiens, UniProt O14684); assay: Microsomal prostaglandin E synthase biochemical assay; conditions: microsomes containing human mPGES-1, PGH2 10.8 μM, GSH 2.5 mM, pH 6.8; average of at least n=2
T1 construct: host or cells: microsomes
T1 sequence (O14684 1-152): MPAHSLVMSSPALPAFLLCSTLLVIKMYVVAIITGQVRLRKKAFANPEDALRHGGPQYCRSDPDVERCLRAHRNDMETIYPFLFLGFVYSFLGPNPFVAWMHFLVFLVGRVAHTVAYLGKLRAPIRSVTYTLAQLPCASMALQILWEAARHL
Method: Compounds were tested as inhibitors of microsomal prostaglandin E synthase activity in microsomal prostaglandin E synthase assays and whole cell assays. These assays measure prostaglandin E2 (PGE2) synthesis, which is taken as a measure of prostaglandin E synthase activity. Microsomal prostaglandin E synthase biochemical assays used microsomal prostaglandin E synthase-1 in microsomal preparations. The source of the microsomes can be for example interleukin-1β-stimulated human A549 cells (which express human mPGES-1) or Sf9 cells transfected with plasmids encoding human mPGES-1 cDNA.
A solution of test compound was added to a diluted microsome preparation containing human mPGES-1 and pre-incubated for 15 minutes in potassium phosphate buffer pH 6.8 with cofactor glutathione (GSH). Corresponding solutions without test compound were used as positive controls, and corresponding solutions without test compound and without microsomes were used as negative controls. The enzymatic reaction was then started by addition of the substrate PGH2 in an organic solution (dry acetonitrile).
The typical reaction conditions of the enzymatic reaction were thus: Test compound: ranging from 60 μM to 0.002 μM, or zero in positive and negative controls; potassium phosphate buffer pH 6.8: 50 mM; GSH: 2.5 mM; mPGES-1-containing microsomes: 2 μg/mL (sample and positive controls) or 0 μg/mL (negative control); PGH2: 10.8 μM; Acetonitrile: 7.7% (v/v); DMSO: 0.6% (v/v). The reaction was stopped after one minute by adding an acidic solution (pH 1.9) of ferric chloride and citrate (final concentrations 7 mM and 47 mM respectively), by which the PGH2 was sequestered (the PGH2 is reduced to mainly 12-hydroxy heptadecatrineoic acid (12-HHT) which is not detected by the subsequent PGE2 detection step). The resulting solution was then pH neutralized by addition of potassium phosphate buffer, prior to diluting an aliquot of the resulting solution in a weak potassium phosphate buffer (50 mM, pH 6.8) containing 0.2% BSA (w/v). [Adapted from Jacobsson et al., Proc. Natl. Acad. Sci. USA, 1999, vol. 96, pp. 7220-7225] The PGE2 formed was quantified by use of a commercial HTRF based kit (catalogue #62PG2PEC or #62P2APEC from Cisbio International). 100% activity was defined as the PGE2 production in positive controls subtracted by the PGE2 production in the negative controls. IC50 values were then determined using standard procedures.
The potency is expressed as IC50 and the value indicated is an average of at least n=2.

`NS(=O)(=O)c1ccccc1NS(=O)(=O)CCc1ccc(Cl)cc1OCCc1ccccc1` [Example 1, 2-(2-(4-chloro-2-phenethoxyphenyl)ethylsulfonamido)benzenesulfonamide] was tested. Which pIC50 [1] did it give?
Its pIC50 is 7.29.

What about the pIC50 (human mPGES-1) of the same molecule?
Its pIC50 is 8.16.

Which results are given for `COc1ccccc1CCOc1cc(Cl)ccc1CCS(=O)(=O)Nc1ccccc1S(N)(=O)=O` [Example 2, 2-(2-(4-chloro-2-(2-methoxyphenethoxy)phenyl)ethylsulfonamido)benzenesulfonamide]?
pIC50 [1]: 8.47; pIC50 (human mPGES-1): 8.43

`COc1cccc(CCOc2cc(Cl)ccc2CCS(=O)(=O)Nc2ccccc2S(N)(=O)=O)c1` [Example 3, 2-(2-(4-chloro-2-(3-methoxyphenethoxy)phenyl)ethylsulfonamido)benzenesulfonamide] was tested. Which pIC50 [1] did it give?
The pIC50 was 7.05.

What about the pIC50 (human mPGES-1) of the same molecule?
The pIC50 was 8.19.

`COc1ccc(CCOc2cc(Cl)ccc2CCS(=O)(=O)Nc2ccccc2S(N)(=O)=O)cc1` [Example 4, 2-(2-(4-chloro-2-(4-methoxyphenethoxy)phenyl)ethylsulfonamido)benzenesulfonamide] was tested. Which pIC50 [1] did it give?
Its pIC50 is 7.15.

What about the pIC50 (human mPGES-1) of the same molecule?
Its pIC50 is 7.58.

Which results are given for `N#Cc1ccccc1CCOc1cc(Cl)ccc1CCS(=O)(=O)Nc1ccccc1S(N)(=O)=O` [Example 5, 2-(2-(4-chloro-2-(2-cyanophenethoxy)phenyl)ethylsulfonamido)benzenesulfonamide]?
pIC50 [1]: 7.98; pIC50 (human mPGES-1): 8.39

What does the source list for `N#Cc1cccc(CCOc2cc(Cl)ccc2CCS(=O)(=O)Nc2ccccc2S(N)(=O)=O)c1` [Example 6, 2-(2-(4-chloro-2-(3-cyanophenethoxy)phenyl)ethylsulfonamido)benzenesulfonamide]?
pIC50 [1]: 7.11; pIC50 (human mPGES-1): 7.87

How did the pIC50 [1] turn out when `N#Cc1ccc(CCOc2cc(Cl)ccc2CCS(=O)(=O)Nc2ccccc2S(N)(=O)=O)cc1` [Example 7, 2-(2-(4-chloro-2-(4-cyanophenethoxy)phenyl)ethylsulfonamido)benzenesulfonamide] was run?
Its pIC50 is 7.12.

And the pIC50 (human mPGES-1)?
The pIC50 was 7.70.

With `Cn1ccc2c(CCOc3cc(Cl)ccc3CCS(=O)(=O)Nc3ccccc3S(N)(=O)=O)cccc21` [Example 8, 2-(2-(4-chloro-2-(2-(1-methyl-1H-indol-4-yl)ethoxy)phenyl)ethylsulfonamido)benzenesulfonamide] as the molecule, how does the pIC50 [1] read?
Its pIC50 is 7.47.

What about the pIC50 (human mPGES-1) of the same molecule?
Its pIC50 is 8.14.

`NS(=O)(=O)c1ccccc1NS(=O)(=O)CCc1ccc(Cl)cc1OCCc1cccc2c1CC(=O)N2` [Example 9, 2-(2-(4-chloro-2-(2-(2-oxoindolin-4-yl)ethoxy)phenyl)ethylsulfonamido)benzenesulfonamide] was tested. Which pIC50 [1] did it give?
The pIC50 was 7.07.

What about the pIC50 (human mPGES-1) of the same molecule?
Its pIC50 is 7.92.

What does the source list for `NS(=O)(=O)c1cc(CO)ccc1NS(=O)(=O)CCc1ccc(Cl)cc1OCCc1ccccc1` [Example 10, 2-(2-(4-chloro-2-phenethoxyphenyl)ethylsulfonamido)-5-(hydroxymethyl)-benzenesulfonamide]?
pIC50 [1]: 7.97; pIC50 (human mPGES-1): 8.10

Source: patent publication US10227296B2, “Bis(sulfonamide) derivatives and their use as mPGES inhibitors” (Acturum Real Estate AB, priority 2014, dated 2019)
